{"source": "ChEMBL document CHEMBL5214968", "about": "“Recent Scaffold Hopping Applications in Central Nervous System Drug Discovery” (J Med Chem, 2022)", "key": {"[1]": {"molecular_target": "T1, Cyclin-G-associated kinase (Homo sapiens, UniProt O14976)", "T1 sequence (O14976 whole entry)": "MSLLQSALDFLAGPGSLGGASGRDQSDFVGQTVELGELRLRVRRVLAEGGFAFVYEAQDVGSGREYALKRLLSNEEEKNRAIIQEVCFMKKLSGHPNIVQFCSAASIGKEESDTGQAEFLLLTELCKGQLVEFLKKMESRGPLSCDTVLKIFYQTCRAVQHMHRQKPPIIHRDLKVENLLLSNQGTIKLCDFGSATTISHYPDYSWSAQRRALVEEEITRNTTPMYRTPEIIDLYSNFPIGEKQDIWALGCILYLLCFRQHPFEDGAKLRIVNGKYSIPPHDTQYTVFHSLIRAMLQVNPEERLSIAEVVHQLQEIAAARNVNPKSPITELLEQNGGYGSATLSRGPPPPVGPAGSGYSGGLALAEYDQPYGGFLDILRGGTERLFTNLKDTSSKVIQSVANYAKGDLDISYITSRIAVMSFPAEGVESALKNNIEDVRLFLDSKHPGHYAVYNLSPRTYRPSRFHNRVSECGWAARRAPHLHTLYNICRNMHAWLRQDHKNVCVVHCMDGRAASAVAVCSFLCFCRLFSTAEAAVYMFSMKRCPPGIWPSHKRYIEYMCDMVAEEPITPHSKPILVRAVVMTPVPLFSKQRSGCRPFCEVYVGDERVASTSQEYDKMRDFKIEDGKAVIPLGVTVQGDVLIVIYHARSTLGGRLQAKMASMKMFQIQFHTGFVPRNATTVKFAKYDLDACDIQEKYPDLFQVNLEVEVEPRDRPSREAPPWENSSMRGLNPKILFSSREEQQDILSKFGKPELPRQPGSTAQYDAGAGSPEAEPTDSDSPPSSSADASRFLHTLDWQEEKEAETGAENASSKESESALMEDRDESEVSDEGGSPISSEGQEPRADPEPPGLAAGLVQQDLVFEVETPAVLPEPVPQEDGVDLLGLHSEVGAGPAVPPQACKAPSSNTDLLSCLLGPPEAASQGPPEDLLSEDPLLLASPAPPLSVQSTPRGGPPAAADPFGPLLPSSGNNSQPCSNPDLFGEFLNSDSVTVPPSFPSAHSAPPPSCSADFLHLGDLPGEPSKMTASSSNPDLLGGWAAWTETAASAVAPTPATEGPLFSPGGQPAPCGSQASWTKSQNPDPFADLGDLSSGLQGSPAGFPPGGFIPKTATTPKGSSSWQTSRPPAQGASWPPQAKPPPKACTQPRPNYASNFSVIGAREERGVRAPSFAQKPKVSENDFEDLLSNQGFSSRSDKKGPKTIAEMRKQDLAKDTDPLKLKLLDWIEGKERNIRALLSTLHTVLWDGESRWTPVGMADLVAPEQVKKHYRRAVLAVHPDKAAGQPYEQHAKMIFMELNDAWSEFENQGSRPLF", "assay": "Binding affinity to GAK (unknown origin) by KINOMEscan analysis"}, "[2]": {"molecular_target": "Cannabinoid receptor 1 (Homo sapiens, UniProt P21554)", "sequence (P21554 whole entry)": "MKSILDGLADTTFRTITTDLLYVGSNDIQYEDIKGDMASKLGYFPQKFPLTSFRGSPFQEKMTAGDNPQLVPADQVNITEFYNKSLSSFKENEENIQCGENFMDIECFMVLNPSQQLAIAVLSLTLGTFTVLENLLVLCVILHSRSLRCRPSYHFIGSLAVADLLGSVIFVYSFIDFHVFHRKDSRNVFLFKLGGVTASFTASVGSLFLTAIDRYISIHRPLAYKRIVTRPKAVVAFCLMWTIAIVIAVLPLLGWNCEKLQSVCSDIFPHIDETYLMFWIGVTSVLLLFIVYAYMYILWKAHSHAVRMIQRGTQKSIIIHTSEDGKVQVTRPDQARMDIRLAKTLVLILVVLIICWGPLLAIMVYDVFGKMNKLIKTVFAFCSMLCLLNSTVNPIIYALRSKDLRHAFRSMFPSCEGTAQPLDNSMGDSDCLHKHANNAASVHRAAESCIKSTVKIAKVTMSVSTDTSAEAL", "assay": "Agonist activity at human CB1 receptor expressed in mouse AtT20 cells by FLIPR assay", "type": "functional, cell-based"}, "[3]": {"molecular_target": "Cannabinoid receptor 2 (Homo sapiens, UniProt P34972)", "sequence (P34972 whole entry)": "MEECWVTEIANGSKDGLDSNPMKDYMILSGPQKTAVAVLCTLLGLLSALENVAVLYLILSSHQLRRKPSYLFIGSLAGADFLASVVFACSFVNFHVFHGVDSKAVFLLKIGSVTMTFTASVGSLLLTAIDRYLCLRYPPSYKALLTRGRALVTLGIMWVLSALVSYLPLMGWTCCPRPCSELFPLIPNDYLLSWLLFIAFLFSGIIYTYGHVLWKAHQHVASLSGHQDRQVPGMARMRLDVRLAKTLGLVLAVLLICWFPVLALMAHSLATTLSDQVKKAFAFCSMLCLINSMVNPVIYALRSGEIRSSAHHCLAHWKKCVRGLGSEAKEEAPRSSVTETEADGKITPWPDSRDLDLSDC", "assay": "Agonist activity at human CB2 receptor expressed in mouse AtT20 cells by FLIPR assay", "type": "functional, cell-based"}, "[4]": {"molecular_target": "Microtubule-associated protein tau (Homo sapiens) (UniProt P10636)", "sequence (P10636 whole entry)": "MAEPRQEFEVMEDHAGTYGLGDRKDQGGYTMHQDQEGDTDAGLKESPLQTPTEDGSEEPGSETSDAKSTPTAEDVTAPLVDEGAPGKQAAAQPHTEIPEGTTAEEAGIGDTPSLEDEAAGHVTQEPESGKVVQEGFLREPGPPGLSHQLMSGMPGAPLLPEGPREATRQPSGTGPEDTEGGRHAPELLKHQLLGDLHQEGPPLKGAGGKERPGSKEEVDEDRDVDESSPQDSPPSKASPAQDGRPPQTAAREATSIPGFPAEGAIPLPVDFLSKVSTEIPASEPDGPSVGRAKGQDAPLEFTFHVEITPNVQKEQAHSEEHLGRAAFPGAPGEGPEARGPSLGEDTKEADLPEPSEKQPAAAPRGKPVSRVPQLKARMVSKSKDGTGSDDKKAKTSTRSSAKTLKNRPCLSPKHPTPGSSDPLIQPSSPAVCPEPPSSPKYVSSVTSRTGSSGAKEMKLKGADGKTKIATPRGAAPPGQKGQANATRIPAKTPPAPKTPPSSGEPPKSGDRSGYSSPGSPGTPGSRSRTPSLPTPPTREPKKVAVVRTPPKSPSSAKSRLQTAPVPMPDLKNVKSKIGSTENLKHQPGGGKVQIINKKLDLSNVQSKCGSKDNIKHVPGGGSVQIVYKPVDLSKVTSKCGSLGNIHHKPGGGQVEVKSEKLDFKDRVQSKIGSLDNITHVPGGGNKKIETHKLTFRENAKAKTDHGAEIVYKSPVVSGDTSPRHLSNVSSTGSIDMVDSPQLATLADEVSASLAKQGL", "assay": "Inhibition of heparin-induced tau protein (unknown origin) aggregation at 100 uM incubated for 3 days by Thioflavin T fluorescence assay", "details": "time 3.0 day"}, "[5]": {"molecular_target": "Mu-type opioid receptor (Homo sapiens, UniProt P35372)", "sequence (P35372 whole entry)": "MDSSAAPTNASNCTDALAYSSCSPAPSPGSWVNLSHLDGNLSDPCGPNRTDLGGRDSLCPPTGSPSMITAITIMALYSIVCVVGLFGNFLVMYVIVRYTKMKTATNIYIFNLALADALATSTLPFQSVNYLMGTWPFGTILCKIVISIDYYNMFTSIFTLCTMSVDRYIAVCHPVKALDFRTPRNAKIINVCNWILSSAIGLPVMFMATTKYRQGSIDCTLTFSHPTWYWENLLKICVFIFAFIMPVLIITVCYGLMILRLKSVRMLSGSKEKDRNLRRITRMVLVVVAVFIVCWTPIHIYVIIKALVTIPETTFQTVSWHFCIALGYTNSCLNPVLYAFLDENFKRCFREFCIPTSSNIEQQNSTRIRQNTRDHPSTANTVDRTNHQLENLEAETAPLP", "assay": "Displacement of [3H]DAMGO from human cloned mu-opioid receptor by radioligand binding assay"}}}
{"smiles": "COc1ccc(-c2cnc3c(c2)nnn3-c2ccccc2)cc1OC", "values": [{"measurement": "Kd", "setting": "[1]", "value": "> 30000", "unit": "nM"}]}
{"smiles": "CC(C)(NC(=O)c1cn(CCCCCF)c2ncccc12)c1ccccc1", "values": [{"measurement": "EC50", "setting": "[2]", "value": 4.7, "unit": "nM"}, {"measurement": "EC50", "setting": "[3]", "value": 11.3, "unit": "nM"}]}
{"smiles": "O=C(NC1CC1)c1nn(-c2ccc(F)cc2)c(=O)c2cscc12", "values": [{"measurement": "inhibition", "setting": "[4]", "value": 51, "unit": "%"}]}
{"smiles": "CC(C)(NC(=O)c1cn(CCCCCF)c2ccccc12)c1ccccc1", "values": [{"measurement": "EC50", "setting": "[2]", "value": 2.8, "unit": "nM"}, {"measurement": "EC50", "setting": "[3]", "value": 39.6, "unit": "nM"}]}
{"smiles": "CC(C)(NC(=O)c1nn(CCCCCF)c2ccccc12)c1ccccc1", "values": [{"measurement": "EC50", "setting": "[2]", "value": 0.43, "unit": "nM"}, {"measurement": "EC50", "setting": "[3]", "value": 11.2, "unit": "nM"}]}
{"smiles": "O=C(NC1CC1)/C(=N\\O)c1cscc1C(=O)NC12CC3CC(CC(C3)C1)C2", "values": [{"measurement": "inhibition", "setting": "[4]", "value": 30, "unit": "%"}]}
{"smiles": "C=CCO/N=C(\\C(=O)NC1CC1)c1cscc1C(=O)Nc1ccc(F)cc1", "values": [{"measurement": "inhibition", "setting": "[4]", "value": 33, "unit": "%"}]}
{"smiles": "O=C(NCCc1ccccc1)[C@H]1CCN(C(=O)Cc2ccc(O)cc2)[C@@H]1C(=O)NCCc1c[nH]c2ccccc12", "values": [{"measurement": "Ki", "setting": "[5]", "value": 820, "unit": "nM"}]}
